How the values were obtained:
[1] = tested on: male stress-derived axillary odor; assay: Cross-adaptation of male stress-derived axillary odor (odor panel, magnitude estimation of perceived intensity); assay type: in vivo, human; details: for Magnitude of Reduction of Intensity of Male Stress-Derived Odor (MSDO), Males: male stress-derived odor perceived by men; for Magnitude of Reduction of Intensity of Male Stress-Derived Odor (MSDO), Females: male stress-derived odor perceived by women
Excerpt: (§1) The procedure relies upon an individual constantly sniffing an adapting agent, such as a fragrance, and occasionally a test odorant. Perceived intensity of the test odorant is obtained by using psychophysical, magnitude-estimation procedures. These perceived intensities are obtained every 30 seconds over the test period, and are then compared with baseline perceived intensities obtained before the individual began sniffing the adapting agent. Throughout the testing we observe adaptation to the adapting agent. Results during trials with an inserted test odorant, such as the axillary odor used here, are believed to be reasonably predictive. If the perceived intensity of the test odorant decreases during the test, then the adapting agent cross-adapts the test odorant and becomes a cross-adapting agent. If the cross-adapting agent is itself not offensive, then the cross-adapting agent becomes a candidate for use in formulations in consumer products to ameliorate malodors, such as axillary odor or fecal/urine odors, and odors related to the female menstrual cycle.
(§2) Collection of secretions: Apocrine secretions obtained under stressed conditions provided the axillary odor that was used as the test odorant to evaluate the effectiveness of various adapting agents. Secretions were obtained from males (ages 20 to 60 years) and females (ages 20 to 40 years) in good health. […] Volunteers prepared their axillae for collection of apocrine secretions by refraining from deodorant use for 3 days and shaving their axillae the morning of the collection day.
(§3) Volunteers were rested in a supine position. The axillary regions were washed with isopropanol-soaked pads and injected intradermally with 1:10,000 adrenalin (in physiologic saline). This injection stimulated the secretion of apocrine gland secretions, which were collected in 10 μl pipettes, passed into 0.25 ml Eppendorf tubes, and stored on ice (or frozen for longer storage). The amount of secretion collected varied greatly with the individual subject (≦10 μl). The apocrine secretions from each volunteer were combined by consecutively washing each Eppendorf tube with 2×300 μl of doubly distilled water. This aqueous-apocrine fluid was transferred to a 5 ml round-bottomed flask for hydrolysis. X-N. Zeng, J. J. Leyden, J. G. Brand, A. I. Spielman, K. J. McGinley, G. Preti, An Investigation of Human Apocrine Gland Secretion for Axillary Odor Precursors, 18 J. Chem. Ecol. 1039-1055 (1992); X-N. Zeng, J. J. Leyden, A. I. Spielman and G. Preti Analysis of the characteristic human female axillary odors: Qualitative comparison to males. 22 J. Chem. Ecol. 237-257 (1996).
(§4) Production of odor: To produce quantities of stress-derived axillary odor for testing purposes, we hydrolyzed the apocrine secretion. The aqueous solution was refluxed for 20 min with 0.5 ml, 5% aqueous sodium hydroxide under a stream of nitrogen. The mixture was allowed to cool to room temperature, and then it was cooled in ice prior to being acidified with 6 N HCl to pH 2. The resulting axillary odor developed in the reaction mixture upon acidification was used as the test odorant. The axillary odors generated by this in vitro technique are analogous to the malodors produced by stressed individuals.
Sixteen (16) individuals (8 of each gender) served on an odor panel. Subjects ranged in age from 22 to 55 years (mean 32.7±10.6 s.d.), were not pregnant (by verbal report), and were all non-smokers. All panel members were screened for adequate use of magnitude estimation (some people have difficulties maintaining a ratio scale, i.e., when an odorant is half as strong as the previous, these people fail to provide a number that is half the previous estimate) and further trained in its use during 2-3 training sessions. All 16 subjects were tested with samples of male malodor compared to each of the potential cross-adapting agents. […]

[2] = tested on: female stress-derived axillary odor; assay: Cross-adaptation of female stress-derived axillary odor (odor panel, magnitude estimation of perceived intensity); assay type: in vivo, human; details: for Magnitude of Reduction of Intensity of Female Stress-Derived Odor (FSDO), Males: female stress-derived odor perceived by men; for Magnitude of Reduction of Intensity of Female Stress-Derived Odor (FSDO), Females: female stress-derived odor perceived by women
Excerpt: as §1, §2, §3, §4
A separate panel of 24 subjects (12 males and 12 females) tested samples of female stress-derived axillary odor with potential cross-adapting agents, some of which were not included in Example 1 above. Some of the subjects assessing the effectiveness of cross-adaptation of male stress-derived axillary odor were also used in the experiment with female secretions. However, these two experiments were treated as independent events. All panel members were screened for adequate use of magnitude estimation and further trained in its use during two to three training sessions. […]
Further: key: best: Best = Superior Cross-Adaptation; good: Good = Adequate Cross-Adaptation; poor: Poor = Ineffective Cross-Adaptation.

## l-carvone
[1]
  Magnitude of Reduction of Intensity of Male Stress-Derived Odor (MSDO), Males: best
  Magnitude of Reduction of Intensity of Male Stress-Derived Odor (MSDO), Females: best
[2]
  Magnitude of Reduction of Intensity of Female Stress-Derived Odor (FSDO), Males: good
  Magnitude of Reduction of Intensity of Female Stress-Derived Odor (FSDO), Females: best

## oxacyclohexadecen-2-one [GLOBALIDE ®]
[1]
  Magnitude of Reduction of Intensity of Male Stress-Derived Odor (MSDO), Males: good
  Magnitude of Reduction of Intensity of Male Stress-Derived Odor (MSDO), Females: poor
[2]
  Magnitude of Reduction of Intensity of Female Stress-Derived Odor (FSDO), Males: poor
  Magnitude of Reduction of Intensity of Female Stress-Derived Odor (FSDO), Females: good

Source: US9381142B2, “Olfactory adaptation and cross-adapting agents to reduce the perception of body odors” (Monell Chemical Senses Center, priority 2002, dated 2016)
